The target in test [1] is Geranylgeranyl transferase type I (Homo sapiens, UniProt P49354+P53609). The experiment in a line: Inhibition of [3H]-GGPP incorporation into recombinant human Ha-Ras-CVLL by Geranylgeranyl transferase type I. It counts as protein-complex assay.
Test [2] has as its target Protein farnesyltransferase (Homo sapiens, UniProt P49354+P49356). Description: Inhibition of [3H]FPP incorporation into recombinant human Ha-Ras-CVLS by farnesyl transferase. The class given is protein-complex assay.

What is called IC50 is the point on the concentration scale where inhibition reaches its midpoint. In the case of `COc1cccc2c1cc1n2C(=O)CN(C)C1=O`, the IC50 in test [1] and in test [2] was greater than 100 µM in each case.

Regarding `COc1cccc2c1CC1C(=O)N(C)CC(=O)N21` (stereo unspecified), the IC50 in test [1] and in test [2] was greater than 100 µM throughout.

As to `CN1C(=O)[C@]23CC4=CC=C[C@H](O)[C@H]4N2C(=O)[C@@]1(CO)SS3` [GLIOTOXIN], the IC50 in test [1] came out at 17 µM; in test [2], 80 µM.

On to `CN1C(=O)c2cc3ccccc3n2C(=O)C1SSCc1ccccc1` (stereo unspecified), for which the IC50 in test [1] and in test [2] was greater than 100 µM throughout.

As to `CN1CC(=O)N2c3ccccc3CC2C1=O` (stereo unspecified), the IC50 in test [1] and in test [2] was greater than 100 µM each time.

Take `COc1cccc2c1cc1n2C(=O)C(SSCc2ccccc2)N(C)C1=O` (stereo unspecified): the IC50 in test [1] and in test [2] was greater than 100 µM each time.

Turning to `CN1CC(=O)n2c(cc3ccccc32)C1=O`, the IC50 in test [1] and in test [2] was greater than 100 µM each time.

Consider `COc1cccc2c1cc1n2C(=O)C(SC(C)=O)N(C)C1=O` (stereo unspecified), for which the IC50 in test [1] was 90.3 µM; in test [2], 748 µM.
